One series deals with Nitric oxide synthase 1 (Homo sapiens, UniProt P29475). As to the kind of experiment: Inhibition of human recombinant nNOS expressed in baculovirus infected insect sf9 cells assessed as conversion of [3H]-L-arginine into [3H]-L-citrulline by radiometric method.
Series [1] concerns the target Nitric oxide synthase, inducible (Homo sapiens, UniProt P35228). As to the kind of experiment: Inhibition of human recombinant iNOS expressed in baculovirus infected insect sf9 cells assessed as conversion of [3H]-L-arginine into [3H]-L-citrulline by radiometric method.
A further series addresses T1, Nitric oxide synthase 3 (Homo sapiens, UniProt P29474).
T1 sequence (P29474 whole entry): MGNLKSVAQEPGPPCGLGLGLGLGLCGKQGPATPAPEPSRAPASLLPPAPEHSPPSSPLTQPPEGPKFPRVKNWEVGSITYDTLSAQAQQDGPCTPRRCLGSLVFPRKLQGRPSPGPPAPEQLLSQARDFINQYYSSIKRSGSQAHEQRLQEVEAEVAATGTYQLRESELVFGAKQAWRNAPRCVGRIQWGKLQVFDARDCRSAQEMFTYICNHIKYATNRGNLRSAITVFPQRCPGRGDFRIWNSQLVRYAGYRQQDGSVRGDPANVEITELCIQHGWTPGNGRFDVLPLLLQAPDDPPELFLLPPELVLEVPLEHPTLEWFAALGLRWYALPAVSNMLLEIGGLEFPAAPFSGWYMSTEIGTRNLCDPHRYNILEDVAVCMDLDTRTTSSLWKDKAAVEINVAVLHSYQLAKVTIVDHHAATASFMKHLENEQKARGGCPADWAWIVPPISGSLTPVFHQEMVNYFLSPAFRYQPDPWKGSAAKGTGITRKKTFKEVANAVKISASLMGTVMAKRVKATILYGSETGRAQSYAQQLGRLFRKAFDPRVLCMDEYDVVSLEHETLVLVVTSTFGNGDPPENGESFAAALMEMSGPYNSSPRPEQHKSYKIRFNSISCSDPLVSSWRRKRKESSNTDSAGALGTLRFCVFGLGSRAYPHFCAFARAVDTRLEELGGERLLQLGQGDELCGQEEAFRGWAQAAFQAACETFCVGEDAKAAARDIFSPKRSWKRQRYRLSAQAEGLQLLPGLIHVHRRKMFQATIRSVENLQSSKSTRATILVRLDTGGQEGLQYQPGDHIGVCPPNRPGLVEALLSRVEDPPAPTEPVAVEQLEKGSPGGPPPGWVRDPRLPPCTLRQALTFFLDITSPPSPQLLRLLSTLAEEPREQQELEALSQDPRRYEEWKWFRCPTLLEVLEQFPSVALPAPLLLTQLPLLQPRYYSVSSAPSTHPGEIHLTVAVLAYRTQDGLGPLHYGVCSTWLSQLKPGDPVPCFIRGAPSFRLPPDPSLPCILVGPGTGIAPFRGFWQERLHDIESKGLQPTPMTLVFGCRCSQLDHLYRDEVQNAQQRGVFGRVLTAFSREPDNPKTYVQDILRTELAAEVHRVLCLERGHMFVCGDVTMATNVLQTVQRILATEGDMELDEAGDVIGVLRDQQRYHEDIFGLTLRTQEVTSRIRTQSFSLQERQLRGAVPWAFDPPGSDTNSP
As to the kind of experiment: Inhibition of human recombinant eNOS expressed in baculovirus infected insect sf9 cells assessed as conversion of [3H]-L-arginine into [3H]-L-citrulline by radiometric method.

Series [2] addresses Voltage-gated inwardly rectifying potassium channel KCNH2 (Homo sapiens, UniProt Q12809). As to the kind of experiment: Inhibition of human Erg expressed in HEK293 cells up to 30 uM by patch clamp assay. It is filed as cell-based.
The target of series [3] is Nitric oxide synthase, inducible (Rattus norvegicus, UniProt Q06518). As to the kind of experiment: Inhibition of rat iNOS.

The record followed here is ChEMBL document CHEMBL2010665, “Novel, druglike 1,7-disubstituted 2,3,4,5-tetrahydro-1H-benzo[b]azepine-based selective inhibitors of human neuronal nitric oxide synthase (nNOS)” (Bioorg Med Chem Lett, 2012).

The structures appear in SMILES notation. A value given as a limit tells only on which side of the number the result lay.

Chain of Nitric oxide synthase 1 (P29475 whole entry): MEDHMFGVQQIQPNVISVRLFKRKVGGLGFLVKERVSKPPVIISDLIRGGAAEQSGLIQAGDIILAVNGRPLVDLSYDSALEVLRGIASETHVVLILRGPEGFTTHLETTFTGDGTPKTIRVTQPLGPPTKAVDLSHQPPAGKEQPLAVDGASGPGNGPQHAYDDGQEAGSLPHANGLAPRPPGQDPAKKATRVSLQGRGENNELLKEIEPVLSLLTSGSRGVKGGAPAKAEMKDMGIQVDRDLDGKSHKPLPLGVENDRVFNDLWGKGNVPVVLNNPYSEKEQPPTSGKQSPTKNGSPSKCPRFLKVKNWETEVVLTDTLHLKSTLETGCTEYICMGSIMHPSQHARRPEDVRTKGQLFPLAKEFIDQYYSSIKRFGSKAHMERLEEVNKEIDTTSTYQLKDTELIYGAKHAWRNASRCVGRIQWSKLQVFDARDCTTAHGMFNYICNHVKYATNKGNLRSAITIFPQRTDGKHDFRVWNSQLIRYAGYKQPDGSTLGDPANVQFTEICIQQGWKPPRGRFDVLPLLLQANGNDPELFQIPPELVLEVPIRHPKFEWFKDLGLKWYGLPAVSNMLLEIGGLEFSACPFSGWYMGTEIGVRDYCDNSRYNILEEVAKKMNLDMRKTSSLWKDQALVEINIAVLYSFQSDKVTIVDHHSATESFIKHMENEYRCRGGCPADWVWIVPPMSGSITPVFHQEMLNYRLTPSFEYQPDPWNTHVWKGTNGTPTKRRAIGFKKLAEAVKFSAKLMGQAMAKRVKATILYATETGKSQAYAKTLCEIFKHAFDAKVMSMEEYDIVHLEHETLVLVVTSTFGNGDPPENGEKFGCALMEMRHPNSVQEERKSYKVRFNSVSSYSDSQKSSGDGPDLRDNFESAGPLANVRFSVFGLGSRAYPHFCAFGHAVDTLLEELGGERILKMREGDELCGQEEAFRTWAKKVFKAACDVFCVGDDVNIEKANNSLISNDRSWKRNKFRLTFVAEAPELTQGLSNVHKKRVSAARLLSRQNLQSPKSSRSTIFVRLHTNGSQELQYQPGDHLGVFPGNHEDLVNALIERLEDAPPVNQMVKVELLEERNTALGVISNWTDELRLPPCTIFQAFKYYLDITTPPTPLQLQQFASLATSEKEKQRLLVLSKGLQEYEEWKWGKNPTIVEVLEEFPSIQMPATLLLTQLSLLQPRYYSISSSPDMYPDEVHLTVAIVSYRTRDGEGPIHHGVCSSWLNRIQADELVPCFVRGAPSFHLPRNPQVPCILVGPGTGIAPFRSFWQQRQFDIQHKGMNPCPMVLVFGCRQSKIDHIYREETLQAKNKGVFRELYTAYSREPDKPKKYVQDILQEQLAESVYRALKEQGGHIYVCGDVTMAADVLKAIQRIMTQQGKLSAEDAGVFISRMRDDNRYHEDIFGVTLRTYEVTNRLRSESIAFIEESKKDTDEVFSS
Chain of Nitric oxide synthase, inducible (Homo sapiens, UniProt P35228) (P35228 whole entry): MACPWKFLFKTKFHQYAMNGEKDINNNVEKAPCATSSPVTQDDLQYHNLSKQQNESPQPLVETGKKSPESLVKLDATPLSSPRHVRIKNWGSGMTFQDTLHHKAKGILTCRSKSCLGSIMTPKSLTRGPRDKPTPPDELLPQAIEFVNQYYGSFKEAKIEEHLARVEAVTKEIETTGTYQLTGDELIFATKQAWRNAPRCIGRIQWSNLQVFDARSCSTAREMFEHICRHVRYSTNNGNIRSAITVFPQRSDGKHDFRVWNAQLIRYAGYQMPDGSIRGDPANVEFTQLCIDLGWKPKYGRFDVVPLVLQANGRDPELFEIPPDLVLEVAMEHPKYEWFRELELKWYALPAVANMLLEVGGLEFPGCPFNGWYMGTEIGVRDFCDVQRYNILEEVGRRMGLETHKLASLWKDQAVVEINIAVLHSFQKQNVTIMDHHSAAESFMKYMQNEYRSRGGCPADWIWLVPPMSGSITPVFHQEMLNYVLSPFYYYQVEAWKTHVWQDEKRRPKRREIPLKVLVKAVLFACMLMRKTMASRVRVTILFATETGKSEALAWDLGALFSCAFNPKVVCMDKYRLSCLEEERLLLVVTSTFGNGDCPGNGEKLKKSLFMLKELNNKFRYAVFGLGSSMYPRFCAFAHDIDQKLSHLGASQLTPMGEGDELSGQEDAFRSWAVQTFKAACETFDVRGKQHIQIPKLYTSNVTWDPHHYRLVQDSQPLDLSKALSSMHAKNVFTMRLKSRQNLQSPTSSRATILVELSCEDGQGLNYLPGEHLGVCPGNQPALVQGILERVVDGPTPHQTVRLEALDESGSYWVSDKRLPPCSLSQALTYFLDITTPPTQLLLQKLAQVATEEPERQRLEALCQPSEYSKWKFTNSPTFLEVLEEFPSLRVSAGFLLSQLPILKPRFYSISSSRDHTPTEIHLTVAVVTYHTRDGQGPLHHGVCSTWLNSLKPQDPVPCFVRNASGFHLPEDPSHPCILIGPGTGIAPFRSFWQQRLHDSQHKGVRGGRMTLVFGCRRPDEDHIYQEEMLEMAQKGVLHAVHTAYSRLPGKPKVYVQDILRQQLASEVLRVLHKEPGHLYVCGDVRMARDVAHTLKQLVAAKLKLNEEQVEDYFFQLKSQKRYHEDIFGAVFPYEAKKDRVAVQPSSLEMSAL
Chain of Voltage-gated inwardly rectifying potassium channel KCNH2 (Q12809 whole entry): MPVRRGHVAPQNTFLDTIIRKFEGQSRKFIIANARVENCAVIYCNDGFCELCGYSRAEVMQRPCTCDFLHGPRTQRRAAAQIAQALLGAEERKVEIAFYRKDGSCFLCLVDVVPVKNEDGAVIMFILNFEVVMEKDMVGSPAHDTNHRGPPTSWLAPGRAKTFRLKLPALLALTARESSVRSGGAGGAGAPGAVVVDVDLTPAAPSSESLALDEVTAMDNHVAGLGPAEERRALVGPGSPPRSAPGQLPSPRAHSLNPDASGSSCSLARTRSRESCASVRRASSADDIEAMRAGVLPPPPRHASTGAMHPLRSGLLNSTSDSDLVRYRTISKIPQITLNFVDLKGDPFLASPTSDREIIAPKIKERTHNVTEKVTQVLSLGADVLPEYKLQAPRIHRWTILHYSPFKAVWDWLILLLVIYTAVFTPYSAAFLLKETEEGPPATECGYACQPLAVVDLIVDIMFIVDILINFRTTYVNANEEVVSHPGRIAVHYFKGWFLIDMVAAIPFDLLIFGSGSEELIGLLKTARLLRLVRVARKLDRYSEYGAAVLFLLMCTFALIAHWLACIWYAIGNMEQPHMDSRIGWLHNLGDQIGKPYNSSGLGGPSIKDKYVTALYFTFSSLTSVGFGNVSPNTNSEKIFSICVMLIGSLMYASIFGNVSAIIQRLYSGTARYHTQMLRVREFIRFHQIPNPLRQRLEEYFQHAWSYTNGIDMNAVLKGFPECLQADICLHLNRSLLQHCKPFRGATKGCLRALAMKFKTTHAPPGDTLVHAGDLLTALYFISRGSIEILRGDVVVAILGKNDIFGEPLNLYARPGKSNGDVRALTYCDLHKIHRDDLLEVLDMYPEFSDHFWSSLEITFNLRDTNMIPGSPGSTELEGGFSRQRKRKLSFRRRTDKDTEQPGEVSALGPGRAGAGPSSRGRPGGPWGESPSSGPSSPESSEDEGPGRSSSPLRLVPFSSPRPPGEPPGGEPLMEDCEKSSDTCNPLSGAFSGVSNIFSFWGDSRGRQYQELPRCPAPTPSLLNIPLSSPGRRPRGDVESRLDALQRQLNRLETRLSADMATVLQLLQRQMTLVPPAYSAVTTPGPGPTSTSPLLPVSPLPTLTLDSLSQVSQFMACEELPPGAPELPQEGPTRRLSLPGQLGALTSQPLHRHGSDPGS
Chain of Nitric oxide synthase, inducible (Rattus norvegicus, UniProt Q06518) (Q06518 whole entry): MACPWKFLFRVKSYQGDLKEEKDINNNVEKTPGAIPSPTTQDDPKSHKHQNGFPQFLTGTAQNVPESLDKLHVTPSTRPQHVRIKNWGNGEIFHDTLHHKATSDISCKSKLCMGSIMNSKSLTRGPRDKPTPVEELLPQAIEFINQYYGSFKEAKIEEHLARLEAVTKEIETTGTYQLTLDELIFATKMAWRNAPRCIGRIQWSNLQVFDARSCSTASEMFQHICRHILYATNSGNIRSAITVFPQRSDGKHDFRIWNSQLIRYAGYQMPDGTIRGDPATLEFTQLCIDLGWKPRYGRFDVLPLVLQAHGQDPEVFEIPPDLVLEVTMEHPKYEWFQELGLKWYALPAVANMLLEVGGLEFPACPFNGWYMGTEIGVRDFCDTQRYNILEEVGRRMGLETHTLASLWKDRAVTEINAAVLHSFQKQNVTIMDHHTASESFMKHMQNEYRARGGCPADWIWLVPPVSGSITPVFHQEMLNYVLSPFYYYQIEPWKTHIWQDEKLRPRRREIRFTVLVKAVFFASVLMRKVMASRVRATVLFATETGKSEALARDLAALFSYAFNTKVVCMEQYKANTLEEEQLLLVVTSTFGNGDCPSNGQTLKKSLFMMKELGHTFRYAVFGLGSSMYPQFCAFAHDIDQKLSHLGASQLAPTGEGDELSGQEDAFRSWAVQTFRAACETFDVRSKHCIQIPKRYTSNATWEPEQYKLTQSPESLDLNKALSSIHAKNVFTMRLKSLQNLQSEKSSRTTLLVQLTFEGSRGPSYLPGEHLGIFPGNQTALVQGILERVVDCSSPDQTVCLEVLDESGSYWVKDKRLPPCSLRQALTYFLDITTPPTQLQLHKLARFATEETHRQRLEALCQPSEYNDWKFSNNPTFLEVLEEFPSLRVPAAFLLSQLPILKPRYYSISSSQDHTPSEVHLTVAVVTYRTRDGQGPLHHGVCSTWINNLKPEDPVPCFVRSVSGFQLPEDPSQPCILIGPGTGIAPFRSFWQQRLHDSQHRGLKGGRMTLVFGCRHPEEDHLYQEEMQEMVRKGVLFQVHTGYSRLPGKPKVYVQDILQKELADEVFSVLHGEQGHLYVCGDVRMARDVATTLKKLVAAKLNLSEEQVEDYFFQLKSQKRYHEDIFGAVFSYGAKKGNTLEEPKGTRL

Take `N=C(Nc1ccc2c(c1)CCCCN2CCN1CCCCC1)c1cccs1`: at Nitric oxide synthase 1, the IC50 came to 1.96 µM.

On to `N=C(Nc1ccc2c(c1)CCCCN2C1CCNC1)c1cccs1` (racemic), for which the IC50 in series [1] came out at 13.5 µM.

As to `N=C(Nc1ccc2c(c1)CCCCN2CCN1CCCC1)c1cccs1`, the results for the IC50 (on Nitric oxide synthase 1; on Nitric oxide synthase 3; in series [1]) were 0.16 µM, 82.2 µM and 16.9 µM, respectively.

In the case of `CN1CCCC1CCN1CCCCc2cc(NC(=N)c3cccs3)ccc21` (racemic), the half-maximal inhibitory concentration (IC50) is 1.86 µM at Nitric oxide synthase 1 and greater than 100 µM in series [1].

For the compound `CNCCN1CCCCc2cc(NC(=N)c3cccs3)ccc21`, the IC50 at Nitric oxide synthase 1 is 0.1 µM; in series [1] it was greater than 100 µM.

Consider `CN1CCC(N2CCCCc3cc(NC(=N)c4cccs4)ccc32)C1` (racemic), for which, in series [1], the IC50 was greater than 100 µM.

In the case of `CN(C)CCN1CCCCc2cc(NC(=N)c3cccs3)ccc21.Cl.Cl`, the IC50 was 1.5 µM in series [1] and greater than 100 µM in series [3]. In addition, in series [2], the “inhibition (INH)” value is given as “Not Active”.

Consider `N=C(Nc1ccc2c(c1)CCCCN2C1CCNCC1)c1cccs1`, for which the IC50 at Nitric oxide synthase 1 turned out to be 2.38 µM.
